# Results: patent US12485105B2, “Composition for suppressing obesity” (DAICEL CORPORATION, priority 2019, dated 2025)
# Assays:
# [1] = tested on: 3T3-L1 cells; details: reported, Non-Patent Document 2; cited from earlier work
# [2] = tested on: rats; details: administration to rats; reported, Non-Patent Document 3; cited from earlier work
# [3] = tested on: SREBP; details: in rats; reported, Non-Patent Document 4; cited from earlier work
# [4] = tested on: C57BL/6 male mice; assay: Thigh muscle weight of mice fed normal or high-fat diet with 8PN; assay type: in vivo; details: 8 weeks, p<0.05, FIG. 11
# Text: (§1) C57BL/6 male mice (available from Japan SLC, Inc.) were arranged into the following six groups of six mice each. Note that, 8-prenylnaringenin (may be described herein as 8PN) was used as the prenylflavonoid of the present embodiment. • (Group 1) Group that ingested a normal diet without the addition of 8PN • (Group 2) Group that ingested a normal diet with the addition of 8PN (final concentration: 0.0005%) • (Group 3) Group that ingested a normal diet with the addition of 8PN (final concentration: 0.005%) • (Group 4) Group that ingested a high-fat diet without the addition of 8PN • (Group 5) Group that ingested a high-fat diet with the addition of 8PN (final concentration: 0.0005%) • (Group 6) Group that ingested a high-fat diet with the addition of 8PN addition (final concentration: 0.005%)
# (§2) AIN-93M feed was used as the normal diet (control diet), and AIN-93M feed containing 30% lard was used as the high-fat diet. These feeds were mixed with 8PN for Group 2, Group 3, Group 5 and Group 6.
# (§3) The mice were each raised in individual cages, were allowed to freely consume each feed and deionized water, and were raised for 8 weeks. The rearing environment included a temperature of 22±2° C., humidity without artificial control, and light-dark cycles alternated every 12 hours. After 8 weeks, the mice were slaughtered by drawing blood from the heart under co-anesthesia of sevoflurane and somnopentyl, after which each mouse was weighed to measure the body weight. Next, subcutaneous adipose tissue, brown adipose tissue, mesenteric adipose tissue, perirenal adipose tissue, and epididymal adipose tissue were extracted from each mouse, and the fat weight in each tissue was measured by weighing with a scale. The total weight of adipose tissue other than the brown adipose tissue was calculated as the weight of white adipose tissue from the extracted fat.
# Example 3 was implemented in the same manner as Example 1 up to the slaughtering of the mice. At the time of the slaughtering, the thigh muscles were removed from each mouse, and the weight of each muscle was measured by weighing with a scale.
# [5] = reported, Patent Document 2; cited from earlier work
# [6] = target: T1, pig-derived pancreatic lipase II (Sus scrofa, UniProt P00591); assay: Pancreatic lipase activity inhibition (triolein substrate, free fatty acids by NEFA C-Test); assay type: biochemical; details: 8PN final concentration 1.0, 2.0, 4.0, 7.0 or 10.0 mg/mL; 37° C., 30 minutes; FIG. 12
# T1 construct: purchased Sigma
# T1 sequence (P00591 1-450): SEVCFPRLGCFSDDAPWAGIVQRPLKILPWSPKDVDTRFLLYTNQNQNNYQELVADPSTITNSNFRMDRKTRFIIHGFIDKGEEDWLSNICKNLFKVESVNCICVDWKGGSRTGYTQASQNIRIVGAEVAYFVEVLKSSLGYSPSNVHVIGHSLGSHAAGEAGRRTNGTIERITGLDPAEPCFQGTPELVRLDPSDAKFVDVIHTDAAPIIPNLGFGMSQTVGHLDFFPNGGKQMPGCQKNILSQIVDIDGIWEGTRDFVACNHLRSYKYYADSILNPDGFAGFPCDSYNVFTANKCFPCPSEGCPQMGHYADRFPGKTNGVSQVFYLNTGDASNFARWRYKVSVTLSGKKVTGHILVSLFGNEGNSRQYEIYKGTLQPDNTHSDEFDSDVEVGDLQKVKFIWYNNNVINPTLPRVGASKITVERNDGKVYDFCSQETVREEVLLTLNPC
# Description: An enzyme solution was prepared by dissolving pig-derived pancreatic lipase II (available from Sigma) in a 100 mM Tris-HCl buffer solution (pH 7.0) to make a final concentration of 250 μg/mL. In addition, 80 mg of triolein, 10 mg of lecithin, and 5 mg of sodium cholate were dissolved in 9 mL of a 100 mM tris-HCl buffer solution (pH 7.0), and the mixture was subjected to ultrasonic treatment for 10 minutes to prepare a substrate solution that was a homogeneous suspension. […] The reaction was stopped by a heating treatment at 100° C. for 2 minutes, and the amount of free fatty acids was measured through absorbance at a wavelength of 550 nm using the NEFA C-Test Wako Kit (available from Fujifilm Wako Pure Chemical Corporation). […]
# Also note that a control was prepared in the same manner as described above with the exception that DMSO was used instead of 8PN. […] The lipase activity inhibition rate was calculated by the following calculation equation (1). Lipase activity inhibition rate (%)={1−((B−A)/(C−A))}×100 (1) • A: Absorbance of blank • B: Absorbance of test reaction solution • C: Absorbance of control
# [7] = tested on: C57BL/6 male mice; assay: Plasma glucose, cholesterol and insulin of mice fed high-fat diet with 8PN; assay type: in vivo; details: 8 weeks; for increase in the blood concentration of glucose: vs Group 4, FIG. 8; for increase in the blood concentration of cholesterol: vs Group 4, FIG. 9; for increase in the blood concentration of insulin: vs Group 4, FIG. 10
# Text: as §1, §2, §3
# Example 2 was carried out in the same manner as Example 1 up to the slaughtering of the mice. Blood was drawn from each mouse at the time of slaughtering and was centrifuged at 5000 rpm for 10 minutes, and plasma was obtained from the supernatant. The amount of glucose was measured using the Glucose CII Test Wako Kit (available from Fujifilm Wako Pure Chemical Corporation), and the amount of insulin was measured using the LBIS (trade name) Mouse Insulin ELISA Kit (RTU) (available from Fujifilm Wako Pure Chemical Corporation). In addition, the amount of cholesterol was measured using the LabAssay Cholesterol Kit (available from Fujifilm Wako Pure Chemical Corporation).
# [8] = reported, Non-Patent Document 1; cited from earlier work
# [9] = reported, Patent Document 1; cited from earlier work
# [10] = tested on: C57BL/6 male mice; assay: Body weight and adipose tissue fat weights of mice fed normal or high-fat diet with 8PN for 8 weeks; assay type: in vivo; details: for increase in the fat weight of the subcutaneous adipose tissue: vs Group 4, FIG. 2; for increase in the fat weight of the brown adipose tissue: vs Group 4, FIG. 3; for increase in the fat weight of the mesenteric adipose tissue: vs Group 4, FIG. 4; for increase in the fat weight of the perirenal adipose tissue: vs Group 4, FIG. 5; for increase in the fat weight of the epididymal adipose tissue: vs Group 4, FIG. 6; for increase in the fat weight of the white adipose tissue: vs Group 4, total of adipose tissue other than brown, FIG. 7
# Text: as §1, §2, §3
# [11] = Group 5: high-fat diet with 8PN 0.0005%
# [12] = Group 6: high-fat diet with 8PN 0.005%
structure (smiles),measurement,setting,value
COc1cc(O)c(CC=C(C)C)c(O)c1C(=O)/C=C/c1ccc(O)cc1 [xanthohumol],differentiation of 3T3-L1 cells,[1],has an effect of suppressing
same,lipid synthesis,[1],an effect of suppressing
same,weight gain,[2],suppressed
same,SREBP activation and lipid synthesis,[3],suppresses
"CC(C)=CCc1c(O)cc(O)c2c1O[C@H](c1ccc(O)cc1)CC2=O [8PN, 8-prenylnaringenin]",weight of the thigh muscle,"[4]; Group 2: normal diet with 8PN 0.0005%, vs Group 1 (normal diet without 8PN)",increased
same,weight of the thigh muscle,"[4]; Group 3: normal diet with 8PN 0.005%, vs Group 1",increased
same,weight of the thigh muscle,"[4]; Group 5: high-fat diet with 8PN 0.0005%, vs Group 4",increased
same,weight of the thigh muscle,"[4]; Group 6: high-fat diet with 8PN 0.005%, vs Group 4",increased
same,suppression of muscle disuse atrophy,[5],exhibits
same,lipase activity inhibition rate,[6],increased in a manner dependent on the concentration of 8PN
same,increase in the blood concentration of glucose,[7]; [11],suppressed
same,increase in the blood concentration of cholesterol,[7]; [11],suppressed
same,increase in the blood concentration of insulin,[7]; [11],suppressed
same,increase in the blood concentration of glucose,[7]; [12],suppressed
same,increase in the blood concentration of cholesterol,[7]; [12],suppressed
same,increase in the blood concentration of insulin,[7]; [12],suppressed
same,estrogen activity,[8],exhibits
same,angiogenesis inhibition,[9],exhibits
same,increase in body weight,"[10]; Group 5: high-fat diet with 8PN 0.0005%, vs Group 4 (high-fat diet without 8PN), FIG. 1",suppressed
same,increase in the fat weight of the subcutaneous adipose tissue,[10]; [11],suppressed
same,increase in the fat weight of the brown adipose tissue,[10]; [11],suppressed
same,increase in the fat weight of the mesenteric adipose tissue,[10]; [11],suppressed
same,increase in the fat weight of the perirenal adipose tissue,[10]; [11],suppressed
same,increase in the fat weight of the epididymal adipose tissue,[10]; [11],suppressed
same,increase in the fat weight of the white adipose tissue,[10]; [11],suppressed
same,increase in body weight,"[10]; Group 6: high-fat diet with 8PN 0.005%, vs Group 4, FIG. 1",suppressed
same,increase in the fat weight of the subcutaneous adipose tissue,[10]; [12],suppressed
same,increase in the fat weight of the brown adipose tissue,[10]; [12],suppressed
same,increase in the fat weight of the mesenteric adipose tissue,[10]; [12],suppressed
same,increase in the fat weight of the perirenal adipose tissue,[10]; [12],suppressed
same,increase in the fat weight of the epididymal adipose tissue,[10]; [12],suppressed
same,increase in the fat weight of the white adipose tissue,[10]; [12],suppressed
